# Experiments:
# Assay type in all cases: biochemical
# KHS/MAP4K5 = biological target: T1, KHS/MAP4K5 (Homo sapiens, UniProt Q9Y4K4); assay: HotSpot radiometric kinase assay (Reaction Biology), KHS/MAP4K5; conditions: 1.5 nM kinase, substrate MBP 20 μM, 33P-ATP, 120 minutes at room temperature
# T1 construct: purchased Reaction Biology
# Procedure: The compounds were profiled in the HotSpot radiometric assays (Reaction Biology).
# Briefly, • 1. Substrate indicated in Table 1 was dissolved in freshly prepared reaction buffer (20 mM HEPES (pH 7.5), 10 mM MgCl2, 1 mM EGTA, 0.01% Brij35, 0.02 mg/ml BSA, 0.1 mM Na3VO4, 2 mM DTT, 1% DMSO) at the concentration indicated in Table 1. • 2. Corresponding kinase (concentration indicated in Table 1) was added and the mixture was gently mixed. • 3. Tested compound dissolved in DMSO was added into the kinase reaction mixture. • 4. ^33P-ATP (specific activity 0.01 μCi/μL final) was added into the reaction mixture to initiate the reaction. • 5. The kinase reaction was incubated for 120 minutes at room temperature. • 6. Reaction mixture was spotted onto P81 ion exchange paper (Whatman K 3698-915). • 7. The filters were extensively washed with […]. • 7. The radioactive phosphorylated substrate remaining on the filter paper was measured.
# Kinase activity data were expressed as the percent remaining kinase activity in tested samples compared to the vehicle (DMSO) reactions. IC50 values and curve fits were obtained using Prism4 Software (GraphPad).
# Table 2 summarizes the inhibitory activities of indicated compounds tested in the in vitro kinase assays described above.
# DDR1 = biological target: T2, DDR1 (Homo sapiens, UniProt Q08345); assay: HotSpot radiometric kinase assay (Reaction Biology), DDR1; conditions: 200 nM kinase, substrate IRS1tide 20 μM, 33P-ATP, 120 minutes at room temperature
# T2 construct: purchased Reaction Biology
# T2 sequence (Q08345 19-913): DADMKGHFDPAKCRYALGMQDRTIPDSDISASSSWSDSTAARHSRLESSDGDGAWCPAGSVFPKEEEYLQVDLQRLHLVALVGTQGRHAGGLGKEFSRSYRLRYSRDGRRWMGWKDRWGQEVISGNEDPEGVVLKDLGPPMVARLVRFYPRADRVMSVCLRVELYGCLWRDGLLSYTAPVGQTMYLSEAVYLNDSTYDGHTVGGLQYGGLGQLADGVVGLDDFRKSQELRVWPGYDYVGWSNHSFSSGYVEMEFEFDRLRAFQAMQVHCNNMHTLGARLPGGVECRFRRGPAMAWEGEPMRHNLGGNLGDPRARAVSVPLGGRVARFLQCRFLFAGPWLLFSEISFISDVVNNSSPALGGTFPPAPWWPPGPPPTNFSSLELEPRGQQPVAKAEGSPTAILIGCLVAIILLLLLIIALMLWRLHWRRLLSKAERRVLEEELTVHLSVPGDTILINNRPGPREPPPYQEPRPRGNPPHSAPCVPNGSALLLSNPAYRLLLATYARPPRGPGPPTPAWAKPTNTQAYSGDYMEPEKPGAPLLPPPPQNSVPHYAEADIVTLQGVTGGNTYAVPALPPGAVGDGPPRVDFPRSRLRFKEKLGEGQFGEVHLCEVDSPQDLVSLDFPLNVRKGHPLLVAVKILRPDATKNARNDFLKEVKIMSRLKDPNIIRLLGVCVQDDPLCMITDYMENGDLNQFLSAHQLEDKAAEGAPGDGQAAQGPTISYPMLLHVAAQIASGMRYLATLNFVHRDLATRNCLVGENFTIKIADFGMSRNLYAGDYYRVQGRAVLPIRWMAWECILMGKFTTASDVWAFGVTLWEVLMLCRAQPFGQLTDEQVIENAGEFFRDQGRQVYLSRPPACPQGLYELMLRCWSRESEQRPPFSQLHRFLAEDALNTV
# Summary of the method: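 Radiometric filter-binding assay: kinase and substrate in 20 mM HEPES pH 7.5, 10 mM MgCl2, 1 mM EGTA, 2 mM DTT, 1% DMSO. Reaction started with ^33P-ATP (0.01 μCi/μL final), run 120 minutes at room temperature. Activity expressed as percent of DMSO control; IC50 from curve fits.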
# FLT3 = biological target: T3, FLT3 (Homo sapiens, UniProt P36888); assay: HotSpot radiometric kinase assay (Reaction Biology), FLT3; conditions: 4 nM kinase, substrate ABLtide 20 μM, 33P-ATP, 120 minutes at room temperature
# T3 construct: purchased Reaction Biology
# T3 sequence (P36888 27-993): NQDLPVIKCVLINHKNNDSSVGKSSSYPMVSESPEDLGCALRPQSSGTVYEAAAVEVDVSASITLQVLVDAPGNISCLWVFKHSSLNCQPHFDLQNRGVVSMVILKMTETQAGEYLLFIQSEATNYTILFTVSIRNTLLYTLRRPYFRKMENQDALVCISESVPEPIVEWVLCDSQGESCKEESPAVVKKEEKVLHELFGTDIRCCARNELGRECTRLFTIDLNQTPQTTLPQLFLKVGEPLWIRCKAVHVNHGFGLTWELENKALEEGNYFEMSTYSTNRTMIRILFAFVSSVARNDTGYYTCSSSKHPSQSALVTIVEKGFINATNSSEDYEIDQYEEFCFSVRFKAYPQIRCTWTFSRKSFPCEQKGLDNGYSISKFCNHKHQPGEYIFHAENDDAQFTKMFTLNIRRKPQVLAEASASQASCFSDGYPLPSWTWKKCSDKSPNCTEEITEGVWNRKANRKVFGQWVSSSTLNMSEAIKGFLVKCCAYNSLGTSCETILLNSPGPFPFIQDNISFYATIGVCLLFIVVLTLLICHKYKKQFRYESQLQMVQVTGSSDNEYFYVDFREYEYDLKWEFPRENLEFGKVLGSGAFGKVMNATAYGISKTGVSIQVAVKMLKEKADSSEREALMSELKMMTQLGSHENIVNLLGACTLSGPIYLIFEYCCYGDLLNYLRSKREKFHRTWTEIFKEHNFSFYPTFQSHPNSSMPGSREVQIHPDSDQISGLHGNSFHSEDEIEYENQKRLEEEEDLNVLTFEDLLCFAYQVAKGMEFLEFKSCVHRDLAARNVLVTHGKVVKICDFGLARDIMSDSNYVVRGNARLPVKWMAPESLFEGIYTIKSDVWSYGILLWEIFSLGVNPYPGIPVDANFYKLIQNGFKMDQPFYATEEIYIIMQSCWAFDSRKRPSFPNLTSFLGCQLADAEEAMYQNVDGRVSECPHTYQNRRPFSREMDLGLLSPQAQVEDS
# Summary of the method: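 Radiometric filter-binding assay with kinase and substrate in HEPES pH 7.5 buffer containing MgCl2, EGTA, Brij35, BSA, Na3VO4, DTT and 1% DMSO, started with ^33P-ATP and run 120 min at room temperature. Phosphorylated substrate on P81 paper counted; activity expressed as % of DMSO control, IC50 from curve fits.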
# T1 sequence (Q9Y4K4 whole entry): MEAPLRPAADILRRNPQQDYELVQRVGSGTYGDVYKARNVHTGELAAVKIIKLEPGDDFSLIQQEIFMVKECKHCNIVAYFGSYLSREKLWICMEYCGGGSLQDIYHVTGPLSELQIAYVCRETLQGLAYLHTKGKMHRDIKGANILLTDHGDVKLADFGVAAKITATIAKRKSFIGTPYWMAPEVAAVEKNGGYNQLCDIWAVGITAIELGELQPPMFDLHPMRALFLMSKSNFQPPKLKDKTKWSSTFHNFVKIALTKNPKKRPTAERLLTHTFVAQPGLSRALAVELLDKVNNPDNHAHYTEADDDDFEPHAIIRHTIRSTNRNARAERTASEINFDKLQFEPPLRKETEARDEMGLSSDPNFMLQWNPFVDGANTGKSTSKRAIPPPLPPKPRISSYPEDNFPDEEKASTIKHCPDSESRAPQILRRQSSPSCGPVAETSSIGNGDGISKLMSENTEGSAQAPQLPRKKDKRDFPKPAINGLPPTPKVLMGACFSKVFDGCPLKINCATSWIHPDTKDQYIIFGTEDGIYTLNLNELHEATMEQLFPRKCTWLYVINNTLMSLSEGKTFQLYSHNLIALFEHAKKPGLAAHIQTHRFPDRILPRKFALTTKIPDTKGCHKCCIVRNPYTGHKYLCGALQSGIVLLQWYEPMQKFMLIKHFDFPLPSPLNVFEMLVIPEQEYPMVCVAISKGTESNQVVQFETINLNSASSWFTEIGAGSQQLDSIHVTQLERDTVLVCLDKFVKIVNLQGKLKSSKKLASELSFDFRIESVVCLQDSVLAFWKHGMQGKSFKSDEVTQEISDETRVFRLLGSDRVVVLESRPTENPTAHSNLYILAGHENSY
SMILES,IC50 (KHS/MAP4K5),IC50 (DDR1),IC50 (FLT3)
"CN1CCN(c2ccc(-c3cnc4c(-c5cc(C(N)=O)ccc5F)coc4c3)cc2)CC1 [Preparative Example 211, 4-fluoro-3-(6-(4-(4-methylpiperazin-1-yl)phenyl)furo[3,2-b]pyridin-3-yl)benzamide]",167 nM,528 nM,21 nM
"CC(=O)OCc1cccc(-c2coc3cc(-c4ccc(N5CCN(C)CC5)cc4)cnc23)c1 [Preparative Example 94, 3-(6-(4-(4-methylpiperazin-1-yl)phenyl)furo[3,2-b]pyridin-3-yl)benzyl acetate]",641 nM,155 nM,77 nM
"CN1CCN(c2ccc(-c3cnc4c(-c5ccc(NC(=O)N(C)C)cc5)coc4c3)cc2)CC1 [Preparative Example 253, 3,3-dimethyl-1-(4-{6-[4-(4-methylpiperazin-1-yl)phenyl]furo[3,2-b]pyridin-3-yl}phenyl)urea]",181 nM,–,377 nM
"CC(c1ccccc1)c1coc2cc(-c3ccc(N4CCN(C)CC4)cc3)cnc12 (racemic) [Preparative Example 203, 1-methyl-4-{4-[3-(1-phenylethyl)furo[3,2-b]pyridin-6-yl]phenyl}piperazine]",804 nM,808 nM,–
"CN1CCN(c2ccc(-c3cnc4c(-c5cc(F)cc(C(N)=O)c5)coc4c3)cc2)CC1 [Preparative Example 219, 3-fluoro-5-{6-[4-(4-methylpiperazin-1-yl)phenyl]furo[3,2-b]pyridin-3-yl}benzamide]",756 nM,27 nM,56 nM
"CN1CCN(c2ccc(-c3cnc4c(Oc5ccccc5)coc4c3)cc2)CC1 [Preparative Example 229, 1-methyl-4-(4-{3-phenoxyfuro[3,2-b]pyridin-6-yl}phenyl)piperazine]",284 nM,308 nM,729 nM
"CNc1cccc(-c2coc3cc(-c4ccc(N5CCN(C)CC5)cc4)cnc23)c1 [Preparative Example 110, N-methyl-3-(6-(4-(4-methylpiperazin-1-yl)phenyl)furo[3,2-b]pyridin-3-yl)aniline]",934 nM,187 nM,53 nM
"CN1CCN(c2ccc(Nc3cnc4c(-c5ccccc5)coc4c3)cc2)CC1 [Preparative Example 101, N-(4-(4-methylpiperazin-1-yl)phenyl)-3-phenylfuro[3,2-b]pyridin-6-amine]",–,347 nM,146 nM
"CN1CCN(c2ccc(-c3cnc4c(-c5cccc([S+](C)[O-])c5)coc4c3)cc2)CC1 (stereo not drawn) [Preparative Example 181, 6-(4-(4-methylpiperazin-1-yl)phenyl)-3-(3-(methylsulfinyl)phenyl)furo[3,2-b]pyridine]",–,284 nM,99 nM
"CN1CCN(c2ccc(-c3cnc4c(-c5ccccc5)coc4c3)cc2)CC1 [Preparative Example 172, 6-(4-(4-methylpiperazin-1-yl)phenyl)-3-phenylfuro[3,2-b]pyridine]",–,141 nM,33 nM

# Second part, the compound after the results:
IC50 (KHS/MAP4K5),IC50 (DDR1),IC50 (FLT3),SMILES
896 nM,272 nM,73 nM,"CN(C)S(=O)(=O)c1cccc(-c2coc3cc(-c4ccc(N5CCNCC5)cc4)cnc23)c1 [Preparative Example 61, N,N-dimethyl-3-(6-(4-(piperazin-1-yl)phenyl)furo[3,2-b]pyridin-3-yl)benzenesulfonamide]"
906 nM,116 nM,49 nM,"COc1cccc(-c2coc3cc(-c4ccc(N5CCNCC5)cc4)cnc23)c1 [Preparative Example 14, 3-(3-methoxyphenyl)-6-(4-(piperazin-1-yl)phenyl)furo[3,2-b]pyridine]"
456 nM,301 nM,62 nM,"NCc1cccc(-c2coc3cc(-c4ccc(N5CCNCC5)cc4)cnc23)c1 [Preparative Example 87, (3-(6-(4-(piperazin-1-yl)phenyl)furo[3,2-b]pyridin-3-yl)phenyl)methanamine]"
394 nM,163 nM,24 nM,"CN1CCN(c2ccc(-c3cnc4c(-c5cccc(CO)c5)coc4c3)cc2)CC1 [Preparative Example 90, (3-(6-(4-(4-methylpiperazin-1-yl)phenyl)furo[3,2-b]pyridin-3-yl)phenyl)methanol]"
433 nM,64 nM,100 nM,"Cn1cc(-c2coc3cc(-c4ccc(N5CCNCC5)cc4)cnc23)cn1 [Preparative Example 34, 3-(1-methyl-1H-pyrazol-4-yl)-6-(4-(piperazin-1-yl)phenyl)furo[3,2-b]pyridine]"
675 nM,42 nM,20 nM,"Fc1ccc(-c2coc3cc(-c4ccc(N5CCNCC5)cc4)cnc23)cc1 [Preparative Example 51, 3-(4-fluorophenyl)-6-(4-(piperazin-1-yl)phenyl)furo[3,2-b]pyridine]"
737 nM,361 nM,151 nM,"c1cc(SC2CCC2)cc(-c2coc3cc(-c4ccc(N5CCNCC5)cc4)cnc23)c1 [Preparative Example 164, 3-(3-(cyclobutylthio)phenyl)-6-(4-(piperazin-1-yl)phenyl)furo[3,2-b]pyridine]"
889 nM,120 nM,31 nM,"Fc1cccc(-c2coc3cc(-c4ccc(N5CCNCC5)cc4)cnc23)c1 [Preparative Example 170, 3-(3-fluorophenyl)-6-(4-(piperazin-1-yl)phenyl)furo[3,2-b]pyridine]"
–,134 nM,26 nM,"NS(=O)(=O)c1cccc(-c2coc3cc(-c4ccc(N5CCNCC5)cc4)cnc23)c1 [Preparative Example 64, 3-(6-(4-(piperazin-1-yl)phenyl)furo[3,2-b]pyridin-3-yl)benzenesulfonamide]"
538 nM,301 nM,207 nM,"CN(C)C(=O)c1cccc(-c2coc3cc(-c4ccc(N5CCNCC5)cc4)cnc23)c1 [Preparative Example 54, N,N-dimethyl-3-(6-(4-(piperazin-1-yl)phenyl)furo[3,2-b]pyridin-3-yl)benzamide]"
